According to patent US6846625B1, “Method for identifying validated target and assay combination for drug development” (priority 1998, dated 2005):
Read-outs that look alike come from different tables or passages of the source. Ends that are not written are not given here. Peptide text beside a SMILES is read from it.

What was measured:
[1] = test system: E. coli JM109/pSC/pC^3844; experiment: Lethal i.p. infection in mice, induced in vivo expression of Pro-3; design: species or system CD-1 female mice; conditions: E. coli JM109/pSC/pC^3844 10^8 cfu/mouse i.p., i.p. ×2
Excerpt: Intracellularly expressed Pro-3 was expected to bind to and inhibit a specific essential cellular target in a manner similar to that of an antimicrobial drug. Pro-3 was expected to cure the infection when its expression was induced in an animal model of bacterial infection. An established animal infection model was used to test this concept (C. O. Onyeji et al., Antimicrob. Agents Chemother. 38:1112-1117 (1994)).
Eight groups of CD-1 female mice (5 mice per group, Charles River Laboratories; Wilmington, Mass.) weighing 20-24 g were used in this experiment. The inoculum was prepared from E. coli JM109/pSC/pC^3844 which was cultured at 37° C. for 17 hr in Luria-Bertani broth containing spectinomycin and chloramphenicol, and then 100 μl of the culture was diluted to 1 ml with medium for reading OD at 600 nm (0.2403, the medium as blank). The turbidity of a 0.5 McFarland standard is equivalent to OD6000.1, or 10^8 cfu/ml. Then 3×10^9 cfu (colony-forming units) of E. coli JM109/pSC/pC^3844 (1.25 ml) from the overnight culture were diluted to 15 ml with 0.01 M phosphate buffered saline (Sigma P-0261) containing 8% hog gastric mucin (Sigma M-2378), 100 μg/ml spectinomycin and 68 μg/ml chloramphenicol. Each mouse of groups 1 through 4 was injected with 0.5 ml of the inoculum intraperitoneally (i.p.), equivalent to 1×10^8 cfu/mouse (lethal dose).
(§1) One and four hours after the inoculation, groups 1 and 5 animals received a saline injection i.p. at 10 ml/kg; groups 2, 3 and 4 animals received i.p. injections of anhydrotetracycline at 2, 1 and 0.5 mg/kg (diluted in saline), respectively; groups 6, 7 and 8 received i.p. injections of anhydrotetracycline at 2, 1 and 0.5 mg/kg, respectively. The injection volume for all the animals was 10 ml/kg.

[2] = test system: E. coli pPROTet-GST; experiment: Lethal i.p. infection in mice, vector control strain; type: in vivo, CD-1 female mice; conditions: E. coli pPROTet-GST 10^8 cfu/mouse i.p., i.p. ×2
Protocol: Groups 5 through 8 served as vector control. The control inoculum was prepared from E. coli pPROTet-GST whose vector carries a gene encoding glutathione S-transferase, but no Pro-3 peptide. E. coli pPROTet-GST was cultured at 37° C. for 17 hr in Luria-Bertani broth containing spectinomycin and chloramphenicol, and then 100 μl of the culture were diluted to 1 ml with the medium for reading OD at 600 nm (0.2858, the medium as blank). Then 3×10^9 cfu (1.05 ml) from the overnight culture were diluted to 15 ml with 0.01 M phosphate buffered saline containing 8% hog gastic mucin. Each mouse of groups 5 through 8 was injected (i.p.) with E. coli pPROTet-GST inocula equivalent to 1×10^8 cfu/mouse (lethal dose).
as §1

[3] = molecular target: S. aureus MetRS (Staphylococcus aureus, UniProt Q5HII6); experiment: S. aureus MetRS aminoacylation (functional charging) assay; type: biochemical
S. aureus MetRS, sequence (Q5HII6 whole entry): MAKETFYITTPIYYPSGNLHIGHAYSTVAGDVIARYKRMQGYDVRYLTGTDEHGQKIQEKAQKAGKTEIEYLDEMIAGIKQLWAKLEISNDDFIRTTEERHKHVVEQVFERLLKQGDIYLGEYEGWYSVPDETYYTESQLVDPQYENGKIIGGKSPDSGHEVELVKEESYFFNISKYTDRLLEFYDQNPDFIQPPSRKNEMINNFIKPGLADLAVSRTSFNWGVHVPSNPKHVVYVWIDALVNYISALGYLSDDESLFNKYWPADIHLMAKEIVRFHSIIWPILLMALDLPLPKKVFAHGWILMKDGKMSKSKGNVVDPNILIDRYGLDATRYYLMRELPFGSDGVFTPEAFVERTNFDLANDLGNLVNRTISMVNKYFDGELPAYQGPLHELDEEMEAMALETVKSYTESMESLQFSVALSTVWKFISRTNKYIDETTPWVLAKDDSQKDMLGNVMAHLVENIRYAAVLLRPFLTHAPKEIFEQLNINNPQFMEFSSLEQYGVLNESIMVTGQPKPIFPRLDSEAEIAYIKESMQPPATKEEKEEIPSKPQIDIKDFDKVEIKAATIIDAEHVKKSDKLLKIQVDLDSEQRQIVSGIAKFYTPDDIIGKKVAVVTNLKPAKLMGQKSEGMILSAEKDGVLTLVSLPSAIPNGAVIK
Protocol: The activity of S. aureus MetRS was monitored by the aminoacylation reaction. The enzyme was diluted in 50 mM HEPES, pH 7.55, 5 mM DTT and 0.01% BSA. A typical 50 μL reaction mixture contained 30 mM HEPES, pH 7.5, 10 mM MgCl2, 30 mM KCl, 90 μM E. coli tRNA, 2 mM ATP and 5 μM [^3H]-methionine (10 Ci/mmol). The reaction was initiated by addition of enzyme at 25° C. At 4 different timepoints, 10 μL of the reaction was quenched into 150 μL cold 5% TCA on a Millipore filter plate. The filter plate is then washed three times with cold 5% TCA followed by water and then ethanol. The filter plate was dried before addition of 100 μL Packard Microscint-20 and counted on a Packard Top-Count microplate scintillation counter.
Inhibition studies were performed for the peptides against two of the substrates, ATP and methionine. This was done at varying concentrations of peptides by holding the concentration of one substrate at its K value (1.5 mM for ATP and 5 μM for methionine), while varying the other substrate concentration around its Km value. The initial velocity data obtained were then analyzed using GraFit.

[4] = molecular target: Sa MetRS (Staphylococcus aureus, UniProt Q5HII6); experiment: Sa MetRS/Met1-F fluorescence polarization binding assay
Sa MetRS, sequence (Q5HII6 whole entry): as above
Protocol: A non-radioactive, homogeneous, sensitive fluorescent polarization (FP) assay has been developed for Staphylococcus aureus MetRS (Sa MetRS) and Met1 peptide. FP is a ratiometric detection method which is capable of discriminating between free and bound states of fluorescently labeled tracer based on differences in the rotation rates of the two states. The Sa MetRS FP binding assay involves the incubation of fluorescently labeled Met1 peptide (Met1-F) with purified Sa MetRS. In the bound state, Met1-F is bound to Sa MetRS and an increase in polarization signal is detected using a FP detection system. In the free state, Met1-F is not bound to Sa MetRS and there is a decrease in polarization signal.
A 96-well plate (Costar cat# 3915) was blocked for 1 hour at room temperature with 150 μL/well 2 mg/ml bovine serum albumin (BSA) (FisherBiotech cat# BP1600-100) in 0.1 M NaHCO3. The plate was then washed manually three times with 150 μL/well of TBS (10 mM Tris-HCl pH 8.0, 150 mM NaCl). […] The plate was then read in an LJL Analyst (LJL Biosystems, Sunnyvale Calif.) in fluorescent polarization mode.
The FP assay for Sa MetRS inhibition has been evaluated to see if it is amenable for high throughput screening (HTS) for drug discovery. […] The IC50 for Met1 was tested on the plate in duplicate and the results were consistent with previously determined values. […]

[5] = molecular target: T1, E. coli ProRS (Escherichia coli, UniProt P16659); experiment: E. coli ProRS tRNA charging (aminoacylation) inhibition; type: biochemical; conditions: read-out: K, (inhibition of E. coli ProRS aminoacylation activity)
T1 construct: made in house
T1 sequence (P16659 whole entry, looked up): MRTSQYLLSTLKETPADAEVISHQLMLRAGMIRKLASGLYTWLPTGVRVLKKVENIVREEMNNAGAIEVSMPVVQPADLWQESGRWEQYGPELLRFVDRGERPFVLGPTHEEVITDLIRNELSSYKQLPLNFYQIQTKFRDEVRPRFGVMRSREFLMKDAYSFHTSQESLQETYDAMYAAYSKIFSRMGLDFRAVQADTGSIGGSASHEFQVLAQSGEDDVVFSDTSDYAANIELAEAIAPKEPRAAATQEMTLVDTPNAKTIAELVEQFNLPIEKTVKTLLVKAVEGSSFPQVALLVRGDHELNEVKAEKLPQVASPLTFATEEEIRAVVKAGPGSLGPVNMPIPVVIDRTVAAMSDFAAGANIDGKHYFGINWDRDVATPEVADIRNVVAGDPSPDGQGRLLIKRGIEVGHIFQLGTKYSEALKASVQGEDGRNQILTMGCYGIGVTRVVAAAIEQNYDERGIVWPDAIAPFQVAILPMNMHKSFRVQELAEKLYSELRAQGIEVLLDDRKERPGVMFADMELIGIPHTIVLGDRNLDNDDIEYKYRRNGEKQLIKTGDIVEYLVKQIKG
Excerpt: In order to produce pure protein for peptide selection, the E. coli ProRS gene (Genbank accession number: M97858) was PCR amplified and cloned into the pET-20b vector (Novagen) using standard molecular cloning protocols (J. Sambrook, et al., Molecular Cloning: A Laboratory Manual, 2nd edition, Cold Spring Harbor Laboratory Press, 1989). The overexpressed ProRS was purified sequentially on Q- and SP-Sepharose columns. […] Thirteen clones from phages that were identified as having a high affinity to ProRS were sequenced. These clones share 4 different sequences, 3 of which are closely related (Table l). See Example 4 of WO98/19162, published 7 May 1998.
The peptide having sequence number 3 was synthesized and tested for inhibition of tRNA charging activity of E. coli ProRS. […] This peptide is called Pro-3 (also, Pro3).
The expressed Pro-3/GST fusion protein was purified on a glutathione-agarose affinity column according to a procedure provided by Pharmacia (see, cg., procedures manual from Pharmacia P-L Biochemicals, Inc.: GST Gene Fusion System, regarding use of pGEX expression vectors and glutathione-S-transferase fusion proteins, 1993). The N-terminal sequence of the purified protein was determined by Edman cycles and confirmed to have the expected Pro-3 peptide sequence. […]

[6] = test system: E. coli JM109/pSC/pC^3844; experiment: E. coli growth in culture upon regulated expression of Pro-3/GST; type: cell-based, Escherichia coli; conditions: anhydrotetracycline induction, compared with GST alone
Protocol: Overnight cultures of JM109/pSC cells harboring pC^3844 (JM109/pSC/pC^3844), or pPROTet-GST (same as pC^3844 without the Pro-3 peptide sequence) were diluted 100-fold in fresh LB medium containing 34 μg/mL chloramphenicol and 50 μg/mL spectinomycin. After 2 hours growth at 37° C., 100 μL aliquots of each of these bacterial cultures were transferred to wells of a 96-well microtiter plate, with or without 10 ng of anhydrotetracycline dissolved in 1 μL ethanol. The growth of bacterial cultures, which were constantly under agitation, was monitored with a plate reader (SpectraMAX-250, Molecular Devices).

[7] = molecular target: E. coli prolyl-tRNA synthetase (ProRS) (Escherichia coli) (UniProt P16659); experiment: cell-based or functional assay
[8] = molecular target: E. coli prolyl-tRNA synthetase (ProRS) (Escherichia coli) (UniProt P16659); experiment: inhibition of ProRS enzyme activity, purified fusion protein
[9] = molecular target: T2, E. coli prolyl-tRNA synthetase (ProRS) (Escherichia coli), P16659; experiment: inhibition of tRNA charging activity, synthetic peptide
T2 chain: T1 sequence (P16659 whole entry, looked up)

Question: Which “Survival (7 days)” value ([1]; inducer 0.5 mg/kg) does the source give for `Cc1c2c(c(O)c3c(O)cccc13)C(=O)[C@]1(O)C(=O)C(C(N)=O)=C(O)[C@@H](N(C)C)[C@@H]1C2` [Anhydrotetracycline, anhydrotetracycline] here?
Answer: Its value is 5/5.

Question: And the “Survival (7 days)” value ([1]; inducer 1 mg/kg)?
Answer: The value was 5/5.

Question: What about the “Survival (7 days)” value ([1]; inducer 2 mg/kg) of the same molecule?
Answer: The value was 5/5.

Question: What about the “Survival (7 days)” value ([2]; inducer 0.5 mg/kg) of the same molecule?
Answer: Its value is 0/5.

Question: What about the “Survival (7 days)” value ([2]; inducer 1 mg/kg) of the same molecule?
Answer: The value was 0/5.

Question: And the “Survival (7 days)” value ([2]; inducer 2 mg/kg)?
Answer: Its value is 0/5.

Question: Which Ki ([3]; methionine varied, ATP held at 1.5 mM, read-out: Kl (methionine)) does the source give for MWDLPYIWSRPV [JT02] here?
Answer: The Ki was 1700 nM.

Question: Which IC50 [3] does the source give for `CSCC[C@H](NC(=O)[C@@H]1CCCN1C(=O)[C@H](Cc1c[nH]c2ccccc12)NC(=O)[C@H](CCCNC(=N)N)NC(=O)[C@H](CC(C)C)NC(=O)[C@H](CCC(N)=O)NC(=O)[C@H](Cc1c[nH]c2ccccc12)NC(=O)[C@@H](NC(=O)[C@H](CC(N)=O)NC(=O)[C@@H]1CCCN1C(=O)[C@@H](N)CC(=O)O)[C@@H](C)O)C(=O)N[C@@H](Cc1c[nH]cn1)C(=O)O` [JT01, DPNTWQLRWPMH] (H-DPNTWQLRWPMH-OH; N-terminus and C-terminus assumed) here?
Answer: The IC50 was 0.2 µM.

Question: What about the Ki ([3]; Kl (ATP), ATP varied, methionine held at 5 μM) of the same molecule?
Answer: The Ki was 13 nM.

Question: What about the Ki ([3]; Kl (methionine), methionine varied, ATP held at 1.5 mM) of the same molecule?
Answer: The Ki was 138 nM.

Question: What about the IC50 [4] of the same molecule?
Answer: Its IC50 is 700 nM.

Question: What about the solubility of the same molecule?
Answer: The solubility was over 100 µM.

Question: With “Pro-3/GST: Pro-3 peptide fused through a 4-amino acid linker to glutathione S-transferase (GST), expressed from pC^3844 (SREWHFWRDYNPTSREGGG; also: fused to GST through a linker, GST left off)” as the molecule, how does the Ki [5] read?
Answer: The Ki was 180 nM.

Question: And the “E. coli growth (OD600) upon expression” value [6]?
Answer: The value was “inhibits E. coli growth”.

B1: Pro-3/GST fusion protein (peptide)
chain: SREWHFWRDYNPTSREGGG
Question: Which Charged tRNA (tRNA-Pro) in cells, +Inducer [7] does the source give for B1 here?
Answer: The Charged tRNA (tRNA-Pro) in cells, +Inducer was 23%.

Question: What about the Charged tRNA (tRNA-Pro) in cells, -Inducer [7] of the same molecule?
Answer: Its Charged tRNA (tRNA-Pro) in cells, -Inducer is 70%.

Question: And the Survival (7 days), mice infected with E. coli JM109/pSC/pC3844, anhydrotetracycline 0.5 mg/kg i.p. x2 [7]?
Answer: The Survival (7 days), mice infected with E. coli JM109/pSC/pC3844, anhydrotetracycline 0.5 mg/kg i.p. x2 was 5 of 5 mice.

Question: What about the Survival (7 days), mice infected with E. coli JM109/pSC/pC3844, anhydrotetracycline 1 mg/kg i.p. x2 [7] of the same molecule?
Answer: Its Survival (7 days), mice infected with E. coli JM109/pSC/pC3844, anhydrotetracycline 1 mg/kg i.p. x2 is 5 of 5 mice.

Question: And the Survival (7 days), mice infected with E. coli JM109/pSC/pC3844, anhydrotetracycline 2 mg/kg i.p. x2 [7]?
Answer: Its Survival (7 days), mice infected with E. coli JM109/pSC/pC3844, anhydrotetracycline 2 mg/kg i.p. x2 is 5 of 5 mice.

Question: What about the Survival (7 days), mice infected with E. coli JM109/pSC/pC3844, saline (no induction) [7] of the same molecule?
Answer: The Survival (7 days), mice infected with E. coli JM109/pSC/pC3844, saline (no induction) was 0 of 5 mice.

Question: What about the Ki [8] of the same molecule?
Answer: Its Ki is 180 nM.

B2: Pro-3 peptide (…) (peptide)
peptide: SREWHFWRDYNPTSR
modifications: not checked
Question: With B2 as the molecule, how does the Ki [9] read?
Answer: The Ki was 300 nM.
